Experimental findings from patent US20240352046A1, “ECTONUCLEOTIDE PYROPHOSPHATASE-PHOSPHODIESTERASE-1 (ENPP1) INHIBITORS AND USES THEREOF” (1cBio, Inc., priority 2020, published 2024) are described below.

Broadly, the IC50 is the midpoint of a concentration-inhibition curve. Read a low IC50 as inhibition by little substance. A word on the EC50: it is the concentration that produces a half-maximal response.

SMILES strings stand for the structures. Where two headings read alike, the source gives them in different places.

Assay [1] deals with ENPP-1 (Ectonucleotide Pyrophosphatase/Phosphodiesterase 1) (Homo sapiens (Human), UniProt P22413). Description: ENPP1 inhibition assay (AMP Glo, cGAMP substrate). Format: biochemical. The following applies: cGAMP 20 μM substrate, ENPP1 1 nM.
The subject of assay [2] is IP-10 release in differentiated THP-1 cells. Put plainly: IP-10 cytokine release assay in THP-1 cell lines. The following applies: for EC50: Homo sapiens, IP-10 release over cGAMP induced release; for Percent release IP-10 (Absolute): differentiated THP-1. In kind it is cell-based, Human. Here is the method: Percent release of Interferon gamma-induced protein 10 (IP-10) was determined in acute monocytic leukemia (THP-1; ATCC® TIB-202™) cell line. THP-1 cells (0.2×10^6 cells/well) were differentiated using phorbol 12-myristate 13-acetate (PMA, 10 nM (final concentration); Cat #P8139, Sigma) and incubated for 24 h at 37° C., 5% CO2 in an incubator (cell culture conditions) prior to treating with serial dilutions of compounds (3 fold, 6 point dose response starting at 10 μM). After treatment with the compounds cells were further incubated for 2 h under cell culture conditions and then exposed to 2′,3′-cGAMP (c-GAMP, 1 μM (final concentration); Cat #SML 1229, Sigma). Differentiated THP-1 cells were further cultured for 24 h after which the supernatant was harvested, and ELISA was performed as per the manufacturer's protocol (BD optEIA Human IP-10 ELISA Set; Cat #550926 & 550534, BD Biosciences). Plates were read in Biotek plate reader by measuring absorbance at 450 nm.
The release of absolute IP-10 in differentiated THP-1 by compounds in the presence of cGAMP was quantified with reference to standard after subtracting blank (negative) reading from the test readings. The absolute release of IP-10 in the presence of cGAMP (1 μM) is given in the bar-graph (FIG.-1) and in the table-B2a.
The release of IP-10 in differentiated THP-1 by compounds over cGAMP induced release at four different concentrations of cGAMP (1, 5, 10 & 30 μM) was quantified with reference to standard by normalizing the blank (negative) subtracted test readings from average of cGAMP activated cells at that particular concentration. The EC50's was calculated by fitting the curve to the “four-parameter variable slope logistic model” using Prism Graph Pad.

For assay [3], the system named is IFN-β release in differentiated THP-1 cells. Put plainly: IFN-β cytokine release assay in THP-1. Format: cell-based. The following applies: Homo sapiens, read-out: EC50 (μM) @ 1 μM of cGAMP; IFN-β release over cGAMP induced release, THP-1, 1 μM cGAMP. As to the method: Percent release of Interferon Beta (IFN-03) was determined in acute monocytic leukemia (THP-1; ATCC® TIB-202™) cell line. THP-1 cells (0.3×10^6 cells/well) were differentiated using phorbol 12-myristate 13-acetate (PMA, 50 ng/mL; Cat #P8139, Sigma) and incubated for 24 h at 37° C., 5% CO2 in an incubator (cell culture conditions) prior to treating with serial dilutions of compounds (3 fold, 5 point dose response starting at […]). After treatment with the compounds cells were further incubated for 2 h under cell culture conditions and then exposed to 2′,3′-cGAMP (c-GAMP, 1 μM; Cat #SML 1229, Sigma). Differentiated THP-1 cells were further cultured for 6 h after which the supernatant was harvested, and ELISA was performed as per the manufacturer's protocol (Human IFN-beta Quantikine ELISA Kit; Cat #DIFNB0, R&D systems). Plates were read in Biotek plate reader by measuring absorbance at 450 nm.

Assay [4] concerns IFN-β release in mouse splenocytes. Put plainly: IFN-β in mouse splenocyte assay. Format: cell-based, Balb/c mice. The following applies: activated Balb/c splenocytes, cGAMP 1 μM, 24 hr. Here is the method:
Percent release of Interferon Beta (IFN-03) is determined in mouse splenocytes isolated from Balb/c mice. Mouse splenocytes ([…] cells/well) were activated with Anti-mouse CD3e (3 μg/mil, coated overnight at 4° C.; Cat #14-0032-82, eBioscience) and then incubated with Anti-mouse CD28 (3 μg/ml soluble; Cat #16-0289-81, eBiosciences) for 24 h at 37° C., 5% CO2 in an incubator (cell culture conditions) prior to treating them with serial dilutions of compounds (3 fold, 6 point dose response starting at 30 μM). After treatment with the compounds cells are further incubated for 2 h under cell culture conditions and then treated with 2′,3′-cGAMP (c-GAMP, 1 μM; Cat #SML 1229, Sigma). Splenocytes were further incubated under cell culture conditions for 24 hr after which the supernatant was harvested, and ELISA was performed as per the manufacturer's protocol (mIFN-β kit; Cat #MIFNB0 & DY008, R&D Systems). Plates were read in Biotek plate reader by measuring absorbance at 450 nm.

Assay [5] deals with IP-10 release in mouse splenocytes. Put plainly: IP-10 in mouse splenocyte assay. In kind it is cell-based, Balb/c mice. The following applies: activated Balb/c splenocytes, cGAMP 1 μM, 48 hr. Here is the method:
Percent release of Interferon gamma-induced protein 10 (IP-10) was determined in mouse splenocytes isolated from Balb/c mice. Mouse splenocytes (2.5*10^5 cells/well) were activated with Anti-mouse CD3e (3 μg/ml, coated overnight at 4° C.; Cat #14-0032-82, eBioscience) and then incubated with Anti-mouse CD28 (3 μg/ml soluble; Cat #16-0289-81, eBiosciences) for 24 h at 37° C., 5% CO2 in an incubator (cell culture conditions) prior to treating them with serial dilutions of compounds (3 fold, 6 point dose response starting at 30 μM). After treatment with the compounds cells were further incubated for 2 h under cell culture conditions and then treated with 2′,3′-cGAMP (c-GAMP, 1 μM; Cat #SML 1229, Sigma). Splenocytes were further incubated under cell culture conditions for 48 hr after which the supernatant was harvested, and ELISA was performed as per the manufacturer's protocol (mIP-10 kit; Cat #DY466-05 & DY008, R&D Systems). Plates were read in Biotek plate reader by measuring absorbance at 450 nm.

Setting [6] is: read-out: EC50 (μM)@ 1 μM of cGAMP, THP-1, 1 μM cGAMP.

Chain of ENPP-1 (Ectonucleotide Pyrophosphatase/Phosphodiesterase 1) (P22413 whole entry): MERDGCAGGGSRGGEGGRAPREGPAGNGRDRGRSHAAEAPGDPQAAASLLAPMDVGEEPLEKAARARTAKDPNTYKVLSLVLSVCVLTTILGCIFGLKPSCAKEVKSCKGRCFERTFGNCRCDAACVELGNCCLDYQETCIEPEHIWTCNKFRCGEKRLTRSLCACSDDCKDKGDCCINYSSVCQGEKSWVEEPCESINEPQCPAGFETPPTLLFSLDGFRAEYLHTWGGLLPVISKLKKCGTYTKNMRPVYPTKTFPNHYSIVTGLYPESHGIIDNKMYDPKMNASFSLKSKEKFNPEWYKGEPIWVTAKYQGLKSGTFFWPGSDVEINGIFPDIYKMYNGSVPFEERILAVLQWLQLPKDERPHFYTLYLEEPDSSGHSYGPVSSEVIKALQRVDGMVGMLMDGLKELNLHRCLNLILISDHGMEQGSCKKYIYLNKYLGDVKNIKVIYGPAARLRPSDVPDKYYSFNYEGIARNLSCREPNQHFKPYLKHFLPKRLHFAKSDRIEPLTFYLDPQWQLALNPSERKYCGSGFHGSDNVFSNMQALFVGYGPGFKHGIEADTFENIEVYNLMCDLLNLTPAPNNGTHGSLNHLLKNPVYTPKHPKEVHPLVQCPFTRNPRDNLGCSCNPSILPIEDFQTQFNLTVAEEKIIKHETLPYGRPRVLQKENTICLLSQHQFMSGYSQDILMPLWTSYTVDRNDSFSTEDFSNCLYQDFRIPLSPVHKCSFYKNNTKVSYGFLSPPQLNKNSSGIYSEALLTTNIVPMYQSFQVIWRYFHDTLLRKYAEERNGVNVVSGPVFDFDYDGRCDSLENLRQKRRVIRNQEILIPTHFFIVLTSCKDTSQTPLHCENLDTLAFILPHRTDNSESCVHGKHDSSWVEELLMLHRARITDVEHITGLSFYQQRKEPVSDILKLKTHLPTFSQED

Regarding `COc1cc2ncnc(N3CC(CCNS(N)(=O)=O)C3)c2cc1OC` [Compound 1.1, (2-(1-(6,7-dimethoxyquinazolin-4-yl)azetidin-3-yl)ethyl)aminisulfonamide], the 50% inhibitory concentration (IC50) in assay [1] stood at 0.008 µM; in assay [4], 3090 nM; in assay [5] it was 1720 nM. For the same compound, the EC50 in assay [2] (setting [6]) was 0.308 µM; in assay [2] (read-out: EC50 (μM)@ 10 μM of cGAMP, THP-1, 10 μM cGAMP) it was 0.471 µM; in assay [2] (read-out: EC50 (μM)@ 30 μM of cGAMP, THP-1, 30 μM cGAMP), 0.624 µM; in assay [2] (THP-1, 5 μM cGAMP, read-out: EC50 (μM)@ 5 μM of cGAMP) it was below 0.12 µM; in assay [3], below 3.35 µM. Moreover, the “Percent release IP-10 (Absolute)” value in assay [2] (cGAMP (1 μM) + compound 0.37 μM) was 8.9%; in assay [2] (cGAMP (1 μM) + compound 1.11 μM), 11.4%; in assay [2] (cGAMP (1 μM) + compound 3.33 μM), 13.1%; in assay [2] (cGAMP (1 μM) + compound 10 μM), 18.3%; in assay [2] (cGAMP (1 μM) + compound […]), 7.0%.

Consider `COc1cc2ncnc(N3CC(CCN(C4CC4)S(N)(=O)=O)C3)c2cc1OC` [Compound 1.23, 4-(3-(2-((sulfamoyl)(cyclopropyl)amino)ethyl)azetidine-1-yl)-6,7-dimethoxyquinazoline], for which 0.029 µM corresponded to half-maximal inhibition in assay [1] (IC50). Besides, the EC50 in assay [2] (setting [6]) is 7.87 µM; in assay [3], above 30 µM.

Regarding `COc1cc2ncnc(N3CC(CC(=O)NO)C3)c2cc1OC` [Compound 1.28, 2-(1-(6,7-dimethoxyquinazolin-4-yl)azetidin-3-yl)-N-hydroxyacetamide], the half-maximal inhibitory concentration (IC50) in assay [1] was found to be 0.026 µM. In addition, the concentration for a half-maximal effect (EC50) in assay [2] (setting [6]) was 9.56 µM; in assay [3], above 30 µM.

In assay [1], `COc1cc2ncnc(N3CC(CCB(O)O)C3)c2cc1OC` [Compound 1.30, 2-(1-(6,7-dimethoxyquinazolin-4-yl)azetidin-3-yl)ethylboronic acid] registered an IC50 of 0.019 µM. Further, the values for the EC50 in assay [2] (setting [6]) and in assay [3] were below 0.12 µM and above 30 µM, respectively.

As to `COc1cc2ncnc(N3CC(C(C)CNS(N)(=O)=O)C3)c2cc1OC` (stereo not drawn) [Compound 1.70, 4-3-(3-sulfamoylaminopropan-2-yl)azetidin-1-yl-6,7-dimethoxyquinazoline], the 50% inhibitory concentration (IC50) in assay [1] was 0.024 µM. Besides, the results for the concentration giving a half-maximal response (EC50) in assay [2] (setting [6]) and in assay [3] were 0.304 µM and 2.82 µM, respectively.

Consider `Cc1cc(Cl)n2ncnc(N3CC4(CC(N(C)S(N)(=O)=O)C4)C3)c12` [Compound 1.76, N-[2-(7-chloro-5-methylpyrrolo[2,1-f][1,2,4]triazin-4-yl)-2-azaspiro[3.3]hept-6-yl]-N-methylsulfuric diamide], for which the IC50 is 0.084 µM in assay [1], 3260 nM in assay [4] and 1780 nM in assay [5]. The concentration giving a half-maximal response (EC50) is 0.071 µM in assay [2] (setting [6]) and below 0.12 µM in assay [3].
